The results in this text go back to US12606571B2, “Macrocyclic compounds and uses thereof” (TURNING POINT THERAPEUTICS, INC., priority 2017, dated 2026).

In one assay the test system is M-NFS-60 cells. Kind of assay: M-NFS-60 cell proliferation at varied CSF-1. It is filed as cell-based. The note with it: Mus musculus. The method, then:
Two thousand cells per well were seeded in 384 well white plate for 24 hrs, and then treated with compounds for 72 hours (37° C., 5% CO2). Cell proliferation was measured using CellTiter-Glo luciferase-based ATP detection assay (Promega) following the manufacturer's protocol. IC50 determinations were performed using GraphPad Prism software (GraphPad, Inc., San Diego, CA).
The anti-cell proliferation activities against MET and CSF1R driven cell lines were conducted with MKN-45, SNU-5, Ba/F3 TEL-CSF1R cells, and M-NFS-60 respectively.

The test system of another assay is MKN-45 tumors. Kind of assay: MKN-45 gastric adenocarcinoma xenograft model. It is filed as in vivo, mouse. The method, then:
MKN-45 and Ba/F3 ETV6-CSF1R cells were cultured using standard techniques in RPMI-1640 medium (Corning, Inc) with 10% fetal bovine serum (Thermo Fisher Scientific, Inc) at 37° C. in a humidified atmosphere with 5% CO2. For implantation, cells were harvested and pelleted by centrifugation at 250 g for 2 minutes. Cells were washed once and resuspended in serum-free medium supplemented with 50% matrigel (v/v).
Female athymic nude mice (5-8 weeks of age) were obtained from Charles River Laboratory and were housed in Innovive IVC disposable cages on HEPA filtered ventilated racks with ad libitum access to rodent chow and water. Five million cells in 100 μL serum-free medium supplemented with 50% matrigel (Corning, Inc) were implanted subcutaneously in the right flank region of the mouse. Tumor size and body weight were measured on designated days. Tumor size was measured with an electronic caliper and tumor volume was calculated as the product of length*width^2*0.5.
The Met gene amplification in MKN-45 cells underlies the molecular mechanism for tumor growth. Athymic nude mice bearing MKN-45 tumors (at the average tumor size of 210 mm^3) were dosed with Compound 5 orally BID for twelve days (FIG. 7). The control group of mice were given vehicle only. Tumor volume (TMV) was measured by caliper on the indicated days and is shown at mean±sem in FIG. 7. […] Tumor growth inhibition (TGI) was calculated as 100%*{1−[(TMVTreated Last Day of Treatment−TMVTreated First Day of Treatment)/(TMVControl on Last Day of Treatment−TMVControl on First Day of Treatment)]} when TMVTreated Last Day of Treatment≥TMVTreated First Day of Treatment. In the case of TMVTreated Last Day of Treatment<TMVTreated First Day of Treatment., tumor regression (REG) was calculated as 100%*(1−TMVTreated Last Day of Treatment/TMVTreated First Day of Treatment). […] Tumor size was reduced in 5 out 10 mice treated with Compound 5 at 10 mg/kg, BID and in 9 out of 10 mice treated with Compound 5 at 30 mg/kg.

Like-named read-outs stand apart in the source and are kept apart here.

Consider `CCN1Cc2c(ccc(F)c2C#N)O[C@@H](C)CNC(=O)c2c(N)nn3ccc1nc23` [Compound 5, (7S)-3-amino-14-ethyl-11-fluoro-7-methyl-4-oxo-4,5,6,7,13,14-hexahydro-1,15-ethenopyrazolo[4,3-f][1,4,8,10]benzoxatriazacyclotridecine-12-carbonitrile], for which the IC50 was 0.3 nM in the assay on M-NFS-60 cells (read-out: M-NFS-60 IC50, CSF-1 0 ng/mL); 3 nM with M-NFS-60 cells (read-out: M-NFS-60 IC50, CSF-1 0.3 ng/mL); 11.6 nM with M-NFS-60 cells (read-out: M-NFS-60 IC50, CSF-1 1 ng/mL); 78.2 nM in the assay on M-NFS-60 cells (read-out: M-NFS-60 IC50, CSF-1 3 ng/mL); 84.1 nM in the assay on M-NFS-60 cells (read-out: M-NFS-60 IC50, CSF-1 10 ng/mL); 181 nM in the assay with M-NFS-60 cells (read-out: M-NFS-60 IC50, CSF-1 30 ng/mL). For the same compound, in the assay with M-NFS-60 cells (read-out: M-NFS-60 IC50, CSF-1 100 ng/mL), the IC50 was 174 nM. Moreover, the “tumor growth inhibition (TGI)” value with MKN-45 tumors (3 mg/kg, BID, oral, twelve days) was determined as 47%. Also, the “tumor regression (REG)” value with MKN-45 tumors (10 mg/kg, BID, oral, twelve days) is listed as 6%; in the assay on MKN-45 tumors (30 mg/kg, BID, oral, twelve days) it was 44%. In addition, the “mice with reduced tumor size” value in the assay on MKN-45 tumors (30 mg/kg) is 9 out of 10. Also, the “mean tumor volume (TMV) compared to control group” value in the assay on MKN-45 tumors (treated groups 3, 10, 30 mg/kg BID, p<0.05) is “significantly lower”.
